The conditions of data set [1]: cited from earlier work.
For data set [2] the following is noted: adverse event rate, comparator; cited from earlier work.
The conditions of data set [3]: 25° C.; cited from earlier work.
The nature of data set [4]: Pilot double-blind crossover study in subjects with erectile dysfunction principally of psychogenic origin. The format is in vivo, human. The text has this:
The primary efficacy parameter was each subject's assessment of the quality of the erection (graded on a 4-point scale). Secondary endpoints included frequency of erection, time from dosing to erection, duration of erection, and efficacy index (EI) for subjects achieving erections. Safety was primarily assessed via adverse events but cardiovascular effects were also investigated by monitoring blood pressure, heart rates, and percent oxygen saturation, prior to and following dosing. The integrity of the nasal mucosa of both nostrils was also evaluated prior to dosing, in the event of nasal symptoms, and at the end of each treatment visit.
Subjects made a total of six visits to the site, an initial screening and qualification visit, three treatment visits in Part 1, and two treatment visits in Part 2. Eligible subjects were randomized to a treatment sequence for Part I after the initial screening visit. Approximately 2 months later, subjects were randomized to a treatment sequence for Part 2.
At each treatment visit, a single dose of study treatment was administered. Efficacy was measured by means of ED questionnaires, which were completed by each subject. Following dosing, all subjects viewed sexually explicit videotapes and magazines for approximately 60 minutes. At the end of this period, the questionnaires were completed and patients were asked to rate the quality of the erection using a 4-point scale. The primary efficacy variable was the subject's global rating of erection, measured on a scale of 1 to 4: 1=increase in size but not hard; 2=hard, but not hard enough for vaginal penetration; 3=hard enough for vaginal penetration (but not completely hard); 4=completely hard.
Safety was measured by monitoring the subjects' blood pressure, heart rate and percent oxygen saturation (by pulse oximetry) before and after dosing (approximately 90 minutes after dosing commenced). In addition, the integrity of the subject's nasal mucosa was assessed prior to, and at the end of treatment. Information on adverse events was collected throughout the period of the study.
Drugs, Doses, and Regimens: At each treatment visit, subjects received one dose of study treatment.

Where a name gives a salt, the structure may show the parent alone. Read-outs that look alike come from different tables or passages of the source.

Take `CN1CCc2cccc3c2[C@H]1Cc1ccc(O)c(O)c1-3` [Apomorphine Hydrochloride]: the “volume of water in which one gram dissolves” value in data set [1] (water at 80° C.) is “about 20 ml”; in data set [1] (water) it was 50 mL.

`CN1CC(=O)N2[C@H](c3ccc4c(c3)OCO4)c3[nH]c4ccccc4c3C[C@@H]2C1=O` [Cialis]: in data set [2], the Dizziness is recorded as 6.2%, the Dyspepsia was 7.7%, the Flushing is on record as 4.2% and the Headache is listed as 13.9%.

On to `O=C(O)CC(O)(CC(=O)O)C(=O)O` [Citric Acid], for which, in data set [3], the pKa1 was 3.128, the pKa2 is listed as 4.761 and the pKa3 was 6.396.

`CCCc1nn(C)c2c(=O)[nH]c(-c3cc(S(=O)(=O)N4CCN(C)CC4)ccc3OCC)nc12` [Viagra]: the “difference in effectiveness in initiating erections between treatments and placebo” value in data set [4] (apomorphine HCl 0.25, 0.50, 1.0 mg, Viagra 50 mg) is “no statistically significant difference”. The serious adverse events result in data set [4] (human, in vivo) is given as “no serious adverse events”. Further, the “subjects who achieved a satisfactory erection (as reported by the subject)” value in data set [4] (single dose) is on record as “around 30%”. Also, the “efficacy by Global Self Assessment Scores (grade 3 or 4)” value in data set [4] (single dose, apomorphine 0.25-1.0 mg intranasal, Viagra 50 mg) is on record as 67%.

Values taken from patent US20240216359A1, “TREATMENT OF NEUROLOGICAL DISORDERS” (GMP BIOTECHNOLOGY LIMITED, priority 2021, published 2024).
